# Data reported in the SangsterLogP compilation.
row,SMILES,logP
1,CC(C)(C)C1CCC(c2ccccc2)(N2CCCCC2)CC1 (stereo not given),6.67
2,C[C@H]1CCCC[C@@]1(c1cccs1)N1CCCCC1,7.29
3,c1ccc(C2(N3CCCCC3)CCCCC2)cc1,5.74
4,CO[C@H]1CCCC[C@@]1(c1ccccc1)N1CCCCC1,4.73
5,C[C@@H]1CC(C)(C)C[C@](c2ccccc2)(N2CCCCC2)C1,6.35
6,c1csc(C2(N3CCCCC3)CCCCC2)c1,6.02
7,C[C@H]1CCCC[C@@]1(c1ccccc1)N1CCCCC1,6.75
8,CC1CCC(c2ccccc2)(N2CCCCC2)CC1 (stereo not given),5.66
9,CO[C@@H]1CCCC[C@]1(c1cccs1)N1CCCCC1,4.89
10,C[C@H]1CCC[C@](c2ccccc2)(N2CCCCC2)C1,5.86
